Assay results: ChEMBL document CHEMBL5375941, “Combating breast cancer with non-steroidal aromatase inhibitors (NSAIs): Understanding the chemico-biological interactions through comparative SAR/QSAR study” (Eur J Med Chem, 2017)

Legend:
[1] = biological target: CYP450 (isoform not stated) (Homo sapiens, UniProt P04798+P05177+P05181+P08684+P10632+P10635+P11509+P11712+P13584+P20813+P20815+P20853+P24462+P24903+P33260+P33261+P51589+P78329+P98187+Q02928+Q08477+Q16678+Q16696+Q5TCH4+Q6VVX0+Q7Z449+Q8TAV3+Q96SQ9+Q9HB55); assay: in vitro; settings: Liver
[2] = biological target: T1, Steroid 17-alpha-hydroxylase/17,20 lyase (Homo sapiens, UniProt P05093); assay type: ADME
T1 sequence (P05093 whole entry): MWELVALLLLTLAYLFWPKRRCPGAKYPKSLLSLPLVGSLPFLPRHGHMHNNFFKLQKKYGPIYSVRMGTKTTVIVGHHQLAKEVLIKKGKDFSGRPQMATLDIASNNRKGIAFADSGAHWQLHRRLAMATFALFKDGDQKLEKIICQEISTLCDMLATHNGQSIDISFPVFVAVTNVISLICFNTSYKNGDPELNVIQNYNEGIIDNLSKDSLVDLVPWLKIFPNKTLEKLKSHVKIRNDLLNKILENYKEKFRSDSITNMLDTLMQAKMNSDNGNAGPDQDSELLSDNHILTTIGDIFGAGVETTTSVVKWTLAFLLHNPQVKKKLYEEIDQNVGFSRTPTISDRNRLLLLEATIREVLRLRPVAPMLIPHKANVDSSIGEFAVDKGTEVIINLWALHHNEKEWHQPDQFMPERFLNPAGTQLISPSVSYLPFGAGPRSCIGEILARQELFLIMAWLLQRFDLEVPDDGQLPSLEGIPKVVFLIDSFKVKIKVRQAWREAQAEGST
Description: Inhibition of human testicular CYP17

Cytochrome P450 1B1 = biological target: T2, Cytochrome P450 1B1 (Homo sapiens, UniProt Q16678)
T2 sequence (Q16678 whole entry): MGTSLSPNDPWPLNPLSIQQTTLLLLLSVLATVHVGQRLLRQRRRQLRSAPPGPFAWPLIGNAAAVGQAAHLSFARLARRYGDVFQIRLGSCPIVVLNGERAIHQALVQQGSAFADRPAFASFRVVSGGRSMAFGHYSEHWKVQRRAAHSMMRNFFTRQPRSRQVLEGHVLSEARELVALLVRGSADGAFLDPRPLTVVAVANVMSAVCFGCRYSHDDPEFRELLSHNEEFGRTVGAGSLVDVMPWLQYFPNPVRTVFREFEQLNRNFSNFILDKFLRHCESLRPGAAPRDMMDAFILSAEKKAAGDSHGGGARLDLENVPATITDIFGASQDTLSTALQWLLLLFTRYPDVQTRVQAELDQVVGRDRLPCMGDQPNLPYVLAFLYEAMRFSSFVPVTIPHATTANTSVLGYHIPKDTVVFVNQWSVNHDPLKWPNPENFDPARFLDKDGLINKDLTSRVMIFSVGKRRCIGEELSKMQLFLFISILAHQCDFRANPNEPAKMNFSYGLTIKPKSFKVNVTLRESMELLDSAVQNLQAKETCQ
Description: Inhibition of recombinant human CYP1B1 using 7-ethyl-0-resorufin as substrate incubated for 30 mins in presence of NADPH

Cytochrome P450 2C19 = Cytochrome P450 2C19 (Homo sapiens, UniProt P33261)
Chain of Cytochrome P450 2C19 (P33261 whole entry): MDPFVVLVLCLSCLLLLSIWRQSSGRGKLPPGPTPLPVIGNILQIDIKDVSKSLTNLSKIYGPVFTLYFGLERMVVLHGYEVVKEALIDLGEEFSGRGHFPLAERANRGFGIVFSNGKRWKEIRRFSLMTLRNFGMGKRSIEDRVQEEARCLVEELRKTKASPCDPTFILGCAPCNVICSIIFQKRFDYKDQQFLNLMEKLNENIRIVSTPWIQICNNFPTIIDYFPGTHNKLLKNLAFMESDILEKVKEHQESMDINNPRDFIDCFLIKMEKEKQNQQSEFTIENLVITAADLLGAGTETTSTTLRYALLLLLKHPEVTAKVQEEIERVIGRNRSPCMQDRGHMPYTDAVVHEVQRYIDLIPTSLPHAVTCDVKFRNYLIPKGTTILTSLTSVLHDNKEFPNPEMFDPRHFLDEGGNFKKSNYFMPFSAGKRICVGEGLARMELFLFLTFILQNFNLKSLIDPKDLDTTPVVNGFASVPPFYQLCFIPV
Description: Inhibition of CYP2C19 in human liver microsomes incubated in presence NADPH

Aromatase = biological target: T3, Aromatase (Homo sapiens, UniProt P11511); assay type: cell-based, JEG-3
T3 sequence (P11511 whole entry): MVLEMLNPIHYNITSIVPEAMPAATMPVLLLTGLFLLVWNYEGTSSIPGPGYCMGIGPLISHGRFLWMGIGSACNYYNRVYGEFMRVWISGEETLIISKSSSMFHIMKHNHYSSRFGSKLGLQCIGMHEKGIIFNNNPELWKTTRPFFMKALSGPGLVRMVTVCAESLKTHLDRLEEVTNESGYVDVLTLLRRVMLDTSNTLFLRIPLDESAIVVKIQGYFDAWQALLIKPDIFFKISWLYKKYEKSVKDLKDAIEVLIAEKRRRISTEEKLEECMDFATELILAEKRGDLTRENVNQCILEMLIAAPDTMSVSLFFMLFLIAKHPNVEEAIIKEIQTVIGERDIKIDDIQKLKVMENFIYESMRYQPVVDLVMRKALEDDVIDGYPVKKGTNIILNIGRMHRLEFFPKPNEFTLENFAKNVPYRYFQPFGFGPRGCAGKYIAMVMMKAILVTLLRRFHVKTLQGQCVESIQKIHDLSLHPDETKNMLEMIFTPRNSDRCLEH

Oc1ccc2c(c1)CCC1C(c3ccncc3)C21 (stereo unspecified)
IC50 [1]: 2.81 mM

c1ccc2c(c1)CCC1C(c3ccncc3)C21 (stereo unspecified)
IC50 [2]: 39.5 µM

COc1ccc(/C=C/c2c(CC=C(C)C)c(O)cc(O)c2CC=C(C)C)cc1
pIC50 (Cytochrome P450 1B1): 13.573

CCn1cc(C(c2ccc(Cl)cc2)n2ccnn2)c2cc(Br)ccc21 (stereo unspecified)
IC50 (Cytochrome P450 2C19): 10 µM

N#Cc1ccccc1-c1cccc(Cn2cncn2)c1
IC50 (Aromatase): 7.01 nM

Oc1cccc2c1CCC1C(c3ccncc3)C21 (stereo unspecified)
IC50 [1]: 0.00605 mM
